Results taken from EP4417602A1, “SUBSTITUTED PYRAZOLE CARBOXAMIDES, SALTS THEREOF AND THEIR USE AS HERBICIDALLY ACTIVE SUBSTANCES” (Bayer AG, priority 2023, dated 2024).

Tests used:
[1] = test system: LOLRI; assay: A. Herbicidal pre-emergence action on harmful plants (Tables A); assay type: in vivo, Lolium rigidum; details: visual grading after ca. 3 weeks vs untreated controls, 100% = plants have died off, 0% = as control plants
Outline: (§1)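 Values are visual percent damage relative to untreated controls, scored ca. 3 weeks after the compound was sprayed on the covering soil of sown pots (sandy loam) at rates up to 1280 g/ha, formulated as WP or EC with 0.5% additive.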

[2] = test system: STEME; assay: as above; assay type: in vivo, Stellaria media; details: visual grading after ca. 3 weeks vs untreated controls, 100% = plants have died off, 0% = as control plants
Outline: as §1

[3] = test system: ECHCG; assay: B. Herbicidal post-emergence action on harmful plants (Tables B); assay type: in vivo, Echinochloa crus-galli
Outline: (§2)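 Greenhouse weeds grown in sandy loam were sprayed post-emergence at the one-leaf stage, 2-3 weeks after sowing. Compounds were applied as WP or EC in water with 0.5% additive at 600 L/ha, at 1280 g/ha or below. Visual damage was rated after about 3 weeks versus untreated plants (0-100%).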

[4] = test system: POAAN; assay: as above; assay type: in vivo, Poa annua
Outline: as §2

[5] = test system: DIGSA; assay: C. Herbicidal pre-emergence action, weed and crop plants (Tables C); assay type: in vivo, Digitaria sanguinalis
Text: (§3) Seeds of mono- and dicotyledonous weed plants and crop plants were sown, in plastic or organic planting pots, in sandy loam and covered with soil. The compounds according to the invention, formulated in the form of wettable powders (WP) or as emulsifiable concentrates (EC), were applied to the surface of the covering soil as aqueous suspension or emulsion, with the addition of 0.5% of an additive, at an application rate of 6001 of water/ha (converted). Following treatment, the pots were placed in a greenhouse and kept under optimum growth conditions for the test plants. The visual grading of the damage to the test plants was carried out after ca. 3 weeks in comparison to untreated controls (herbicidal effect in percent (%): 100% effect = plants have died off, 0% effect = as control plants). Tables C1 to C12 below show the effects of selected compounds of the general formula (I) according to table 1 on various harmful plants and an application rate corresponding to 320 g/ha or below obtained by the experimental procedure mentioned above. Table C1: pre-emergence activity at 320g/ha against KCHSC in %

[6] = test system: LOLRI; assay: as above; assay type: in vivo, Lolium rigidum; details: application rate 320 g/ha; Table C7a
Text: as §3

[7] = test system: SETVI; assay: as above; assay type: in vivo, Setaria viridis; details: application rate 320 g/ha; Table C10
Text: as §3

[8] = test system: BRSNW; assay: D. Pre-emergence effects on crop plants (Tables D); assay type: in vivo, Brassica napus; details: crop plant
Outline: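 Seeds sown in sandy loam and covered; WP or EC formulations sprayed onto the soil surface as aqueous suspension/emulsion with 0.5% additive, at 320 g/ha or below. Greenhouse-grown; visual damage scored after ca. 3 weeks against untreated controls (0% = as control, 100% = plants dead).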

[9] = test system: TRZAS; assay: F. Post-emergence effects on crop plants (Tables F); assay type: in vivo, Triticum aestivum; details: crop plant
Outline: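 Plants were grown in sandy loam in a greenhouse and sprayed post-emergence at the single-leaf stage, 2–3 weeks after sowing. Visual damage was scored after ca. 3 weeks against untreated controls (0% = as control, 100% = dead).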

[10] = application rate 1280 g/ha, Table B2a
[11] = application rate 1280 g/ha, Table B7a
[12] = application rate 80 g/ha, Table C5b
[13] = application rate 320 g/ha, Table C5a
[14] = application rate 320 g/ha, Table B2b
[15] = application rate 320 g/ha, Table B7b

SMILES	pre-emergence activity against LOLRI ([1]; application rate 80 g/ha) [%]	pre-emergence activity against LOLRI ([1]; application rate 320 g/ha) [%]	pre-emergence activity against LOLRI ([1]; application rate 1280 g/ha) [%]	pre-emergence activity against STEME ([2]; application rate 1280 g/ha) [%]	post-emergence activity against ECHCG [3, 10] [%]	post-emergence activity against POAAN [4, 11] [%]	pre-emergence activity against DIGSA [5, 12] [%]	pre-emergence activity against DIGSA [5, 13] [%]	pre-emergence activity against LOLRI [6] [%]	pre-emergence activity against SETVI [7] [%]	pre-emergence activity against BRSNW in % ([8]; application rate 80 g/ha) [%]	pre-emergence activity against BRSNW in % ([8]; application rate 320 g/ha) [%]	pre-emergence activity against STEME ([2]; application rate 320 g/ha) [%]	post-emergence activity against TRZAS in % ([9]; application rate 80 g/ha) [%]	post-emergence activity against TRZAS in % ([9]; application rate 320 g/ha) [%]	post-emergence activity against ECHCG [3, 14] [%]	post-emergence activity against POAAN [4, 15] [%]	pre-emergence activity against STEME ([2]; application rate 80 g/ha) [%]	post-emergence activity against POAAN ([4]; application rate 80 g/ha, Table B7c) [%]
COCc1nn(C)cc1C(=O)N1CCCC1Cc1ccccc1F (racemic) [Example I-002]	90	90	100	90	90	90	90	90	90	80	0	0	–	–	–	–	–	–	–
Cn1cc(C(=O)N2CCCC2Cc2ccccc2F)c(COc2ccccc2)n1 (racemic) [Example I-006]	–	–	90	90	100	90	–	100	–	–	0	10	90	20	20	–	–	–	–
Cn1cc(C(=O)N2CCCC2Cc2ccc(F)cc2F)c(COc2ccccc2)n1 (racemic) [Example I-008]	–	–	–	90	–	90	–	90	–	90	0	10	–	20	20	–	–	–	–
COCc1nn2c(c1C(=O)N1CCCC1Cc1ccccc1F)CCC2 (racemic) [Example I-022]	–	100	100	–	–	90	–	90	100	–	0	0	–	0	0	–	–	–	–
C=C(c1ccccc1F)C1CCCN1C(=O)c1cn(C)nc1COC (racemic) [Example I-023]	–	100	100	90	90	90	90	100	100	90	0	0	90	–	–	–	–	–	–
COCc1nn(C(=O)OC(C)(C)C)cc1C(=O)N1CCCC1Cc1ccccc1F (racemic) [Example I-040]	–	90	100	90	90	–	80	90	100	80	0	0	90	–	–	–	–	–	–
CNC(=O)n1cc(C(=O)N2CCCC2Cc2ccccc2F)c(COC)n1 (racemic) [Example I-051]	100	100	100	90	90	90	90	100	90	80	0	0	90	–	–	–	–	–	–
COCc1c(C(=O)N2CCCC2Cc2ccccc2Cl)cnn1C (racemic) [Example I-170]	–	90	90	–	90	90	–	–	90	–	0	0	–	20	–	90	90	–	–
COCc1nn(C)cc1C(=O)N1CCCC1Cc1ccccc1F (single isomer, unassigned) [Example I-003]	100	100	100	90	90	90	–	–	90	80	0	0	90	–	–	90	90	90	90
COCc1nn(C)cc1C(=O)N1CCCC1C(O)c1ccccc1F (single isomer, unassigned) [Example I-053]	–	90	90	90	90	–	80	90	90	90	10	–	90	10	20	–	–	–	–
COCc1c(C(=O)N2CCCC2Cc2ccccc2F)cnn1C (single isomer, unassigned) [Example I-157]	–	90	90	100	–	100	–	90	90	–	0	0	90	0	20	–	100	–	–
